Article PMC10013850 (Proceedings of the National Academy of Sciences of the …, 2023)

T1: hMfsd2a (Homo sapiens, UniProt Q8NA29)
T1 sequence (Q8NA29 1-530 isoform Q8NA29-2): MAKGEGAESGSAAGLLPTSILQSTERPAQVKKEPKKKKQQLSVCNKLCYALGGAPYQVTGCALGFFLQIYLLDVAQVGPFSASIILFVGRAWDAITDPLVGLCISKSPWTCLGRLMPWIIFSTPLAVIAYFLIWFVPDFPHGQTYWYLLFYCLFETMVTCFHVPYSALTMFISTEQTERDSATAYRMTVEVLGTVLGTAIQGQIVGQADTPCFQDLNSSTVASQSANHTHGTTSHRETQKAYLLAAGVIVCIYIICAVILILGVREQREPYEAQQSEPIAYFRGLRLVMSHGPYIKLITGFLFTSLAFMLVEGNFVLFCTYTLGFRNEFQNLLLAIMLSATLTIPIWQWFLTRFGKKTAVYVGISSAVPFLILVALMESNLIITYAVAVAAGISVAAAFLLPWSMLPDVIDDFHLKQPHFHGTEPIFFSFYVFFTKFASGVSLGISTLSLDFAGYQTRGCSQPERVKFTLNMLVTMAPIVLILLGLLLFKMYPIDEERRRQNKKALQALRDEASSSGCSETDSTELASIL


Columns and labels:
[1] = target: T1, hMfsd2a; experiment: single-cell flow cytometry uptake assay in transfected HEK293 cells; details: read-out: apparent Km; 37 °C, 30 min, serum-free DMEM; labelled compound
[2] = substrate: C[N+](C)(C)CCOP(=O)([O-])OC[C@H](O)COC(=O)CCCCCCCCCCCNc1ccc([N+](=O)[O-])c2nonc12; experiment: cells, lysate or membranes; details: 37 °C, 30 min, serum-free DMEM, labelled compound

| Km [1] | Molecule | Km [2] |
| --- | --- | --- |
| 3 µM | LPC-16:1-NBD |  |
|  | hMfsd2a (Homo sapiens) (protein) MAKGEGAESGSAAGLLPTSILQSTERPAQVKKEPKKKKQQLSVCNKLCYALGGAPYQVTGCALGFFLQIYLLDVAQVGPFSASIILFVGRAWDAITDPLVGLCISKSPWTCLGRLMPWIIFSTPLAVIAYFLIWFVPDFPHGQTYWYLLFYCLFETMVTCFHVPYSALTMFISTEQTERDSATAYRMTVEVLGTVLGTAIQGQIVGQADTPCFQDLNSSTVASQSANHTHGTTSHRETQKAYLLAAGVIVCIYIICAVILILGVREQREPYEAQQSEPIAYFRGLRLVMSHGPYIKLITGFLFTSLAFMLVEGNFVLFCTYTLGFRNEFQNLLLAIMLSATLTIPIWQWFLTRFGKKTAVYVGISSAVPFLILVALMESNLIITYAVAVAAGISVAAAFLLPWSMLPDVIDDFHLKQPHFHGTEPIFFSFYVFFTKFASGVSLGISTLSLDFAGYQTRGCSQPERVKFTLNMLVTMAPIVLILLGLLLFKMYPIDEERRRQNKKALQALRDEASSSGCSETDSTELASIL | 244 µM |
